Assay results: patent publication US4981861A, “Tricyclic imidazole derivatives” (Hoffmann-La Roche Inc., priority 1984, dated 1991)

What was measured:
[1] = tested on: gastric acid secretion; experiment: gastric acid secretion-inhibiting activity (4-methylhistamine-stimulated, Heidenhain pouch, oral); format: in vivo; details: Canis lupus familiaris, conscious beagle hounds, p.o., 50% inhibition of gastric acid production caused by i.v. 4-methylhistamine, read-out: Gastric acid secretion-inhibition ED 50
Protocol: The experimental procedure described hereinafter was used to determine the gastric acid secretion-inhibiting activity:
A part of the stomach fundus of female and male beagle hounds is separated from the remainder of the stomach in the form a pouch of the Heidenhain type (modification of the method described by Rudick et al. in J. Surgical Research 7, 383-398 (1967)). In the pouch there is fitted a steel cannula which is conducted externally through the abdominal wall. Before each experiment the animals receive no food for 18 hours, but receive water ad libitum. They are conscious and standing during the experiment and their gastric acid secretion is stimulated by the intravenous infusion of 4-methylhistamine, a selective agonist of the histamine H2 -receptors. The gastric acid production is determined in 15 minute fractions of the stomach pouch juice. As soon as the gastric acid production has a constant value, the substances to be tested are administered orally as a dry powder filled into gelatine capsules. The ED50 is that dosage of a test substance which brings about a 50% inhibition of the gastric acid production caused by 4-methylhistamine in the treated animals in comparison to the controls.

[2] = tested on: lesions of the stomach; experiment: anti-ulcer activity (protection from indomethacin-induced lesions of the stomach, oral); format: in vivo, male rats; details: Rattus norvegicus, rats, p.o. 1 hour before and 2 hours after 20 mg/kg indomethacin p.o., dosage protecting 50% of the animals, read-out: Anti-ulcer ED 50
Protocol: The experimental procedure described hereinafter was used to determine the anti-ulcer activity:
Groups each comprising 8 male rats with a body weight of 130-150 g are used for each dosage of a test substance. Before the beginning of the experiment the animals receive no food for 24 hours, but receive water ad libitum. Various dosages of the substances to be tested (suspended in 0.5% tragacanth) or the vehicle alone (controls) are administered twice orally, namely 1 hour before and 2 hours after the oral administration of 20 mg/kg of indomethacin. In the control animals this dosage of indomethacin leads to lesions of the stomach within 5 hours. The animals are sacrificed 6 hours after the first administration of the substance under investigation (or of the vehicle alone). The rats which remain protected from the occurrence of macroscopically visible lesions to the mucous membrane of the stomach are counted. The ED is that dosage of a test substance at which 50% of the animals are protected from the occurence of such lesions.

[3] = acute toxicity (single oral administration to mice); details: mouse, in vivo, read-out: Toxicity LD 50
Description: In the following Table there are given for a series of compounds of formula I the results of the testing with respect to their anti-ulcer activity and to their gastric secretion-inhibiting activity. Moreover, this Table contains data concerning the acute toxicity (LD50 in the case of single oral administration to mice).

Compound	ED50 [1] [mg/kg]	ED50 [2] [mg/kg]	LD50 [3] [mg/kg]
COc1ccnc(C[S+]([O-])c2nc3cc4c(cc3[nH]2)OCO4)c1C (stereo not drawn) [E, 6-[[(4-methoxy-3-methyl-2-pyridyl)methyl]sulfinyl]-5H-1,3-dioxolo[4,5-f]benzimidazole]	1.79	4	> 5000
COc1c(C)cnc(C[S+]([O-])c2nc3cc4c(cc3[nH]2)OCO4)c1C (stereo not drawn) [F, 6-[[(4-methoxy-3,5-dimethyl-2-pyridyl)methyl]sulfinyl]-5H-1,3-dioxolo[4,5-f]benzimidazole]	1.4	6	> 5000
COc1ccnc(C[S+]([O-])c2nc3cc4c(cc3[nH]2)C(C)(C)C(=O)C4(C)C)c1C (stereo not drawn) [D, 5,7-dihydro-2-[[(4-methoxy-3-methyl-2-pyridyl)-methyl]sulfinyl]-5,5,7,7-tetramethylindeno[5,6-d]imidazol-6(lH)-one]	3.59	1.3	> 5000
COc1c(C)cnc(C[S+]([O-])c2nc3cc4c(cc3[nH]2)C(C)(C)C(=O)C4(C)C)c1C (stereo not drawn) [B, 5,7-dihydro-2-[[(4-methoxy-3,5-dimethyl-2-pyridyl)-methyl]sulfinyl]-5,5,7,7-tetramethylindeno[5,6-d]imidazol-6(lH)-one]	5.44	2.3	> 5000
COc1c(C)cnc(CSc2nc3cc4c(cc3[nH]2)C(C)(C)C(=O)C4(C)C)c1C [A, 5,7-dihydro-2-[[(4-methoxy-3,5-dimethyl-2-pyridyl)-methyl]thio]-5,5,7,7-tetramethylindeno[5,6-d]imidazol-6(lH)-one]	4.88	2	> 5000
COc1ccnc(CSc2nc3cc4c(cc3[nH]2)C(C)(C)C(=O)C4(C)C)c1C [C, 5,7-dihydro-2-[[(4-methoxy-3-methyl-2-pyridyl)methyl]thio]-5,5,7,7-tetramethylindeno[5,6-d]imidazol-6(lH)-one]	2.56	1.2	> 5000
CON=C1C(C)(C)c2cc3nc([S+]([O-])Cc4nccc(OC)c4C)[nH]c3cc2C1(C)C (stereo not drawn) [H, 5,7-dihydro-2-[[(4-methoxy-3-methyl-2-pyridyl)methyl]sulfinyl]-5,5,7,7-tetramethylindeno[5,6-d]imidazol-6(lH)-one 0-methyl oxime]	7.78	5	1250 to 2500
CON=C1C(C)(C)c2cc3nc(SCc4nccc(OC)c4C)[nH]c3cc2C1(C)C [I, 5,7-dihydro-2-[[(4-methoxy-3-methyl-2-pyridyl)methyl]thio]-5,5,7,7-tetramethylindeno[5,6-d]imidazol-6(lH)-one 0-methyl oxime]	2.25	4	1250 to 2500
